# Patent US12583895B2, “Polypeptides for restoring endothelial function and methods of use thereof” (Vanderbilt University, priority 2019, dated 2026)
# Entries after “also recorded” stand apart in the source; their conditions may differ. Non-standard residues stand in square brackets, D forms with d. No end group written: not given here. pS = N[C@@H](COP(=O)(O)O)C(=O)O
# What was measured:
# [1] = tested on: human saphenous veins (HSV); assay: Endothelial-dependent relaxation of human saphenous veins from CABG patients, muscle bath; format: cell-based; conditions: human saphenous vein; for endothelial function (percent relaxation to carbachol) in HSV / relaxation responses normalized to baseline relaxation in HSV: 1 hour; for relaxation responses normalized to baseline relaxation in HSV: mean±SD
# Procedure: Human saphenous veins (HSV) were collected from patients undergoing coronary artery bypass grafting procedures and treated with NiPp (500 μM) for 1 hour at room temperature. PE-precontracted tissues were treated with carbachol (CCH; 10^−8 to 10^−5M). Percent relaxation was determined as a change to the maximal PE-induced contraction. Data are reported as mean responses±standard deviation. n=2. Baseline endothelial function in HSV was low.
# PE-precontracted tissues were treated with carbachol (CCH; 10^−8 to 10^−5M). Percent relaxation were determined as a change to the maximal PE-induced contraction. Data are reported as mean responses±standard deviation. n=10. […] When normalized to baseline relaxation, NiPp led to 255±321.5% in relaxation responses in HSV.
# HSV were suspended in the muscle bath, contracted with PE and treated with carbachol (CCH; 10^−8 to 10^−5 M). The percent relaxation was determined as a change to the maximal PE-induced contraction. Percent relaxation to 5×10^−6 M CCH is shown. n=10; *p<0.05 in paired t-test. […] Data are expressed as mean±SD.
# Human saphenous veins (HSV) was obtained under approval from the Institutional Review Board of Vanderbilt University Medical Center from consented patients undergoing coronary artery bypass grafting procedures. HSV segments were collected immediately following surgical harvest and transported to the laboratory in PL for immediate experimentation.
# Measurement of endothelial-dependent relaxation. Rings of HSV or RA (1-2 mm) were suspended in a muscle bath containing a bicarbonate buffer (120 mM sodium chloride, 4.7 mM potassium chloride, 1.0 mM magnesium sulfate, 1.0 mM monosodium phosphate, 10 mM glucose, 1.5 mM calcium chloride, and 25 mM sodium bicarbonate, pH 7.4) equilibrated with 95% O2/5% CO2 at 37° C. for 1 h at a resting tension of 1 g, manually stretched to three times the resting tension, and maintained at resting tension for an additional 1 h.
# This produced the maximal force tension relationship as previously described. After equilibration, the rings were primed with 110 mM potassium chloride (with equimolar replacement of sodium chloride in bicarbonate buffer) to determine functional viability. Viable rings were then tested for contractile response to a dose of phenylephrine (PE) to yield submaximal contraction (approximately 60-70% of maximum KCl; 5×10^−6 M for HSV and 1-5×10^−7 M for RA) and relaxed with carbachol (CCH, 5×10^−7 M), an acetylcholine analogue, to determine endothelial-dependent relaxation responses. Force measurements were obtained using the Radnoti force transducer (model 159901A, Radnoti LLC, Monrovia, CA) interfaced with a PowerLab data acquisition system and LabChart software (AD Instruments Inc., Colorado Springs, CO). Contractile responses were defined by stress, calculated using force generated by tissues as follows: stress (×10^5 N/m^2)=force (g)×0.0987/area, where area=wet weight (mg)/at maximal length (mm)]/1.055.
# Relaxation was calculated as percent change in stress compared to the maximal PE-induced contraction (set as 100%). Each data point was averaged from at least two rings from the same specimen. To determine concurrent signaling events, tissues were frozen in liquid nitrogen at relevant timepoints.
# This study illustrates that the NiPp polypeptide (SEQ ID NO:1) restores endothelial function in aged human saphenous veins. […]
# p38 MAPK phosphorylation = p38 MAPK phosphorylation (Western blot) in anisomycin-treated rat aorta; format: cell-based; conditions: NiPp 500 μM 30 min pretreatment, then anisomycin 200 μM 1 h, immunoblot
# Procedure: RA rings were suspended in a muscle bath and incubated with either buffer alone (Ctrl), Aniso (200 μM) for 1 h, or NiPp (500 μM) for 30 min followed by Aniso (200 μM) for 1 h. […] Proteins were extracted […] immunoblotted to examine p38MAPK phosphorylation. Quantification of relative phosphorylation to total p38MAPK level is shown. n=10, *p<0.05 in one-way ANOVA with Tukey post-test. NiPp restores endothelial dysfunction and reduced p38 MAPK phosphorylation induced by anisomycin in RA.
# RA rings were suspended in a muscle bath and incubated with either buffer alone (Ctrl), Aniso (200 μM) for 1 h, or NiPp (500 μM) for 30 min followed by Aniso (200 μM) for 1 h. […] The force generated was determined and was adjusted to the weight and length of the tissue. […] Proteins were extracted and phosphorylation of p38 MAPK was determined by Western blot analysis. […] Data are expressed as mean±SD.
# p38 MAPK activation with Anisomycin. […] After treatments, endothelial-dependent relaxation was determined or tissues were snap-frozen for Western blot analysis.
# Western blot Analysis. […] The protein-antibody complexes were visualized and quantified using the Odyssey Infrared Imaging System. Phosphorylation was calculated as a ratio of the phosphorylated protein to total protein and was then normalized to the untreated tissues (Ctrl) with the control value set as 1.0.
substance,measurement,setting,value
"YARAAARQARASPAARRA(pS)AILPG (YARAAARQARASPAARRA[pS]AILPG) [NiPp, Cell-permeant phosphopeptide mimetic of Niban: transduction domain … conjugated to the region surrounding serine 602 of Niban]",endothelial-dependent relaxation in HSV (percent relaxation to 5×10^−6 M CCH),"[1]; NiPp 100 μM in PL, 2 h, room temperature, n=10",improves; also recorded: improvement
same,endothelial function (percent relaxation to carbachol) in HSV,"[1]; NiPp 100 μM, room temperature, n=10",increased endothelial function
same,relaxation responses normalized to baseline relaxation in HSV,"[1]; NiPp 100 μM, n=10",255±321.5%
same,endothelial function (percent relaxation to carbachol) in HSV,"[1]; NiPp 500 μM, room temperature, n=2",increased endothelial function
same,relaxation responses normalized to baseline relaxation in HSV,"[1]; NiPp 500 μM, n=2",183±24%
same,anisomycin-induced p38 MAPK phosphorylation relative to total p38 MAPK,p38 MAPK phosphorylation,decreased; also recorded: reduced; also recorded: prevented
